Measurements published in ChEMBL document CHEMBL3045574, “Safening Effects of 1, 8-Naphthalic Anhydride in Corn Plants Treated with Bensulfuron-methyl and Imazaquin” (J Pestic Sci, 1997).
Calls of active or inactive are those of the source. The rule behind the calls is not given here.

Assays:
Acetolactate synthase = molecular target: T1, Acetolactate synthase (Zea mays, UniProt Q41768+Q41769); test: Inhibition of Zea mays (maize) acetolactate synthase; assay type: protein assay
T1 sequence (Q41768 whole entry): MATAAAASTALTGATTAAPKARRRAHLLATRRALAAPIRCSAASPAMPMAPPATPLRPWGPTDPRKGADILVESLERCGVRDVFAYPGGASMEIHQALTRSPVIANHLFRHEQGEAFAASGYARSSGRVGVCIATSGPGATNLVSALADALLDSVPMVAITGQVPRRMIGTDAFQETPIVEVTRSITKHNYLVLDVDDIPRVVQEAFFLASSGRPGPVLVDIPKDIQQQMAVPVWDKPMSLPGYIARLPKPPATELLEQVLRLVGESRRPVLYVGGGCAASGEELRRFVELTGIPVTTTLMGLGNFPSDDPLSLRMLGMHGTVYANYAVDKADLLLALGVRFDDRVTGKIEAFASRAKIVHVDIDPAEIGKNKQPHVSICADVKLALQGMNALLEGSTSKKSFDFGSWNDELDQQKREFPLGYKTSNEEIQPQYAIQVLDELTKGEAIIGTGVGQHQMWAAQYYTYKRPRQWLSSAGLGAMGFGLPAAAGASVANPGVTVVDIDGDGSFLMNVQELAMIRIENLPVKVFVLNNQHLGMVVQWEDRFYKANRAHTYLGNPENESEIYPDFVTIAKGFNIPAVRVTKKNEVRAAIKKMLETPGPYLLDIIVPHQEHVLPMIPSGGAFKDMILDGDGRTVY
T1 sequence (Q41769 whole entry): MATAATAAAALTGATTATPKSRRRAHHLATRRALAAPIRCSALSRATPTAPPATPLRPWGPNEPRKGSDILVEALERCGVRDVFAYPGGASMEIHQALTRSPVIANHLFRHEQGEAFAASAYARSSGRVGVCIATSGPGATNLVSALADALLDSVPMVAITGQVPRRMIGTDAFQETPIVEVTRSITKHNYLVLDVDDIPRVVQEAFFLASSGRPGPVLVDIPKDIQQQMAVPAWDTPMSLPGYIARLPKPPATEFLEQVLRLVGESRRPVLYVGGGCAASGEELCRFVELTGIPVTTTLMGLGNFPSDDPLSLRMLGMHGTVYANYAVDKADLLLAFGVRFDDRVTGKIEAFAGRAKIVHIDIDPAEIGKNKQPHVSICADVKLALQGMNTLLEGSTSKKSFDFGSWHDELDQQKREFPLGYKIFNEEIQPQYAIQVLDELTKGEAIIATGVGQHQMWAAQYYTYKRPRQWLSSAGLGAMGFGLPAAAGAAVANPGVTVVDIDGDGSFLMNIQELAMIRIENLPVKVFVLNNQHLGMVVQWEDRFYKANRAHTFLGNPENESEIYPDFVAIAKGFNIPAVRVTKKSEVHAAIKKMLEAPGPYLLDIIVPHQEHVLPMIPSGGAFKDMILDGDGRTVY

Zea mays [1] = test: Effect on pyruvate content in Zea mays (maize) shoot assessed per gram of fresh weight at 0.2 % w/w after 10 days (reference value: 18.4 umol); assay type: functional
Zea mays [2] = test: Decrease of bensulfuron-methyl-induced increase of pyruvate content in Zea mays (maize) assessed per gram of fresh weight at 0.2 % w/w after 10 days; assay type: functional, organism-based
Zea mays [3] = test: Protection against bensulfuron-methyl-induced growth inhibition of Zea mays (maize) assessed as safening index at 0.05 to 0.4 % w/w treated 1 to 14 days before bensulfuron-methyl challenge measured after 3 weeks relative to untreated control; assay type: functional
Zea mays [4] = test: Increase of acetolactate synthase activity in Zea mays (maize) root; assay type: functional
Zea mays [5] = test: Increase of acetolactate synthase activity in Zea mays (maize) at 0.2 % w/w after 15 min relative to control; assay type: functional
Zea mays [6] = test: Effect on pyruvate content in Zea mays (maize) roots assessed per gram of fresh weight at 0.2 % w/w after 10 days (reference value: 13.3 umol); assay type: functional
Zea mays [7] = test: Effect on pyruvate content in Zea mays (maize) embryos assessed per gram of fresh weight at 0.2 % w/w after 10 days (reference value: 8.5 umol); assay type: functional
Zea mays [8] = test: Increase of acetyl CoA carboxylase activity in Zea mays (maize) at 0.2 % w/w after 15 min relative to control; assay type: functional
Zea mays [9] = test: Protection against imazaquin-induced growth inhibition of Zea mays (maize) assessed as safening index at 0.05 to 0.4 % w/w treated 1 to 14 days before imazaquin challenge measured after 3 weeks relative to untreated control; assay type: functional
Zea mays [10] = test: Increase of acetolactate synthase activity in Zea mays (maize) shoot; assay type: functional
Zea mays [11] = test: Effect on pyruvate content in Zea mays (maize) endosperms assessed per gram of fresh weight at 0.2 % w/w after 10 days (reference value: 11.4 umol); assay type: functional
Zea mays [12] = test: Decrease of imazaquin-induced increase of pyruvate content in Zea mays (maize) assessed per gram of fresh weight at 0.2 % w/w after 10 days; assay type: functional, organism-based

`CC(C)C1(C)N=C(c2nc3ccccc3cc2C(=O)O)NC1=O` (centres undefined) [IMAZAQUIN] gave an I50 (Acetolactate synthase) of 11.8 µM.
`COC(=O)c1ccccc1CS(=O)(=O)NC(=O)Nc1nc(OC)cc(OC)n1` [BENSULFURON METHYL] was tested, and the I50 (Acetolactate synthase) was 0.2 µM.
With `O=C1OC(=O)c2cccc3cccc1c23` [1,8-NAPHTHALIC ANHYDRIDE] the Activity (Zea mays [1]) was 16.2 µmol, the Activity (Zea mays [2]) was “Active” and the Ratio (Zea mays [3]) was 303. For the same compound, the Activity (Zea mays [4]) was 30%, the Activity (Zea mays [5]) was 31.9% and the Activity (Zea mays [6]) was 13 µmol. The Activity (Zea mays [7]) was 8 µmol, the Activity (Zea mays [8]) was 216% and the Ratio (Zea mays [9]) was 5.1. For the same compound, the Activity (Zea mays [10]) was 24%, the Activity (Zea mays [11]) was 11.2 µmol and the Activity (Zea mays [12]) was “Active”.
